Tests used:
HCoV 229E = HCoV 229E cytopathic effect (CPE) assay; type: cell-based, Human Coronavirus (HCov) 229E; details: unidentified human coronavirus, CellTiter Glo, read-out: 229 ECPE EC50
Procedure: Compounds were assayed using standard methods against multiple coronaviral strains, including HCoV 229E and OC43 strains. The antiviral activity of compounds was calculated based on the protection of the virus-induced CPE at each concentration normalized by the virus control.
Cytopathic effect (CPE) was measured by CellTiter Glo following the manufacturer's manual. The antiviral activity of compounds was calculated based on the protection of the virus-induced CPE at each concentration normalized by the virus control.

229E mPRO = 229E mPRO (Human coronavirus 229E (HCoV-229E), UniProt P0C6X1); assay: 229E mPRO enzymatic assay; type: biochemical, Human Coronavirus (HCov) 229E; details: read-out: 229E mPRO IC50
Procedure: Compounds were assayed using standard methods to assess compound activity and IC50. […] The assay buffer contained 20 mM of Tris-HCl (pH 7.3), 100 mM of NaCl, 1 mM of EDTA, 5 mM of TCEP and 0.1% BSA.
The compounds were added to an assay plate.
IC50 values of compounds were calculated with the GraphPad Prism software using the nonlinear regression model of log(inhibitor) vs. response—Variable slope (four parameters). The inhibition activity was calculated using the formula below, IC50 values was calculated using the Inhibition % data. Inhibition %=[(Sample−Average ZPE)/(Average HPE−Average ZPE)]*100%^# • ^#HEP: Hundred percent effect controls. […] Containing enzyme+substrate, no compound. • Sample: Compound activity testing wells. Containing compound+enzyme+substrate. • BG: Compound background control wells. Containing compound+substrate, no enzyme.

SARS-COV2 Mpro = SARS-COV2 Mpro (Severe acute respiratory syndrome coronavirus 2 (2019-nCoV) (SARS-CoV-2), UniProt P0DTD1); assay: COVID-19 (nCoV-2019, SARS-CoV2) Mpro enzymatic assay; type: biochemical; details: 25 nM Mpro, 25 μM substrate
[1] = Cytotoxicity under 229E CPE assay conditions without virus infection (CellTiter Glo)

229E mPRO, sequence (P0C6X1 2966-3267 limits assumed): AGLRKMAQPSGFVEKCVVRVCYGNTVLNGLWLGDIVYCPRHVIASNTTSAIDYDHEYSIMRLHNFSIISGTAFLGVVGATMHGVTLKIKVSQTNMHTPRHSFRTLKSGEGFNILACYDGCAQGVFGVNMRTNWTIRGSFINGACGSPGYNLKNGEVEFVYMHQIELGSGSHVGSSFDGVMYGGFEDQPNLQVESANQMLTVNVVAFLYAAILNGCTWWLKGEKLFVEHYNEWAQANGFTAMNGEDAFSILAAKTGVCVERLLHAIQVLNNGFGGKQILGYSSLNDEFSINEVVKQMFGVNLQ

Row | Compound | EC50 (HCoV 229E) | IC50 (229E mPRO) | IC50 (SARS-COV2 Mpro) | CC50 (in vitro) | CC50 [1]
1 | COc1cccc2[nH]c(C(=O)N3CC4(CCC4)CC3C(=O)N[C@H](C#N)C[C@@H]3CCCNC3=O)cc12 (single isomer, unassigned) [719 (Isomer 2)] | < 22 µM | < 22 µM | < 22 µM | – | –
2 | N#C[C@H](C[C@@H]1CCNC1=O)NC(=O)[C@H](CC1CC1)n1ccc2[nH]cnc2c1=O [Compound 269] | – | > 30 µM | > 30 µM | – | –
3 | COc1cccc2[nH]c(C(=O)N3CC(c4ccccc4)CC3C(=O)NC(C#N)CC3CCNC3=O)cc12 (centres unmarked) [Compound 170] | – | – | – | > 30 µM | –
4 | COc1cccc2[nH]c(C(=O)N[C@@H](CC(C)C)C(=O)N[C@H](C#N)Cc3ccccn3)cc12 [Compound 439] | – | > 30 µM | 10 to 30 µM | – | –
5 | COc1cccc2[nH]c(C(=O)N[C@@H](CC(C)C)C(=O)N[C@H](C#N)Cc3cncn3C)cc12 [Compound 225, N-[(1S)-1-[[(1S)-1-cyano-2-(3-methylimidazol-4-yl)ethyl]carbamoyl]-3-methyl-butyl]-4-methoxy-1H-indole-2-carboxamide] | – | > 30 µM | > 30 µM | – | –
6 | COc1cccc2[nH]c(C(=O)N[C@@H](CC3CC3)C(=O)N[C@@]3(C#N)CC4CCC3[C@H]3C(=O)NC(=O)[C@@H]43)cc12 (single isomer, unassigned) [489 (Isomer 1)] | – | > 30 µM | > 30 µM | – | –
7 | CC(C)CC(NC(=O)c1nc2ncccc2[nH]1)C(=O)NC(C#N)CC1CCNC1=O (single isomer, unassigned) [130 (Isomer 1)] | – | – | – | – | > 30 µM
8 | COc1cccc2[nH]c(C(=O)N[C@@H](CC(C)C)C(=O)N[C@@H](C[C@@H]3CCNC3=O)C(O)C#N)cc12 (stereo partly drawn) [Compound 135, N-[(1S)-1-[[(1S)-2-cyano-2-hydroxy-1-[[(3S)-2-oxopyrrolidin-3-yl]methyl]ethyl]carbamoyl]-3-methyl-butyl]-4-methoxy-1H-indole-2-carboxamide] | < 22 µM | – | – | > 30 µM | –
9 | COc1nccc2[nH]c(C(=O)N[C@@H](CC3CC3)C(=O)N[C@H](C#N)C[C@@H]3CCCNC3=O)cc12 [Compound 623] | – | > 30 µM | > 30 µM | – | –
10 | COc1cccc2[nH]c(C(=O)N[C@@H](CC(C)C)C(=O)N[C@@H](C#N)Cc3cc(=O)[nH]c4ccccc34)cc12 (mixture of isomers) [Compound 237] | – | > 30 µM | > 30 µM | – | –
11 | COc1cccc2[nH]c(C(=O)N[C@@H](CC(C)C)C(=O)N[C@@H](C[C@@H]3CCNC3=O)C(C#N)NCC(=O)O)cc12 (some centres unmarked) [Compound 653] | < 22 µM | < 22 µM | < 22 µM | – | –
12 | COc1cccc2[nH]c(C(=O)N[C@@H](CC3CC3)C(=O)N[C@@]3(C#N)CCc4cccnc4C3)cc12 [Compound 279] | – | > 30 µM | > 30 µM | – | –
13 | N#CC1(NC(=O)[C@H](CC2CC2)NC(=O)OCc2ccccc2)C[C@H]2CC[C@@H]1[C@H]1C(=O)NC(=O)[C@@H]21 (single isomer, unassigned) [495 (Isomer 1)] | – | > 30 µM | > 30 µM | – | –
14 | N#C[C@H](C[C@@H]1CCNC1=O)NC(=O)[C@@H]1CCc2ccc(NCC(=O)Oc3ccccc3)c(=O)n21 [Compound 483] | – | > 30 µM | > 30 µM | – | –
15 | CC(C)(C)OC(=O)N1CCCCC12CCN([C@@H](CC1CC1)C(=O)N[C@H](C#N)C[C@@H]1CCNC1=O)C2=O (single isomer, unassigned) [473 (Isomer 2)] | – | > 30 µM | > 30 µM | – | –
16 | COc1cccc2[nH]c(C(=O)N[C@H](CN[C@H](C#N)C[C@@H]3CCNC3=O)CC(C)(C)C)cc12 [Compound 659] | – | > 30 µM | > 30 µM | – | –
17 | COc1cccc2[nH]c(C(=O)N[C@@H](CC(C)C)C(=O)N[C@@H](C[C@@H]3CCNC3=O)C(C#N)Nc3ccccc3)cc12 (some centres unmarked) [Compound 327] | 2 to 10 µM | < 22 µM | < 22 µM | – | –
